Conditions: Liquid, Vibrating tube method

COC(F)(C(F)(F)C(F)(F)F)C(F)(C(F)(F)F)C(F)(F)F (centres undefined)
mass density [kg/m3]
Conditions	333.15 K	353.15 K	373.15 K	393.15 K
100 kPa	–	1521.7	–	–
1000 kPa	–	1526.5	1473.5	1417.2
5000 kPa	–	1545.6	1497.1	1446.9
10000 kPa	–	1566.5	1521.9	1476.7
15000 kPa	–	1584.7	1543.1	1501.4
20000 kPa	–	1601	1561.5	1522.8
25000 kPa	1653	1615.8	1578.3	1541.5
30000 kPa	1665.2	1629.5	1593.7	1558.4
35000 kPa	1676.5	1642.1	1607.7	1573.8
40000 kPa	1687.3	1653.7	1620.4	1588
45000 kPa	1697.5	1664.8	1632.5	1601
50000 kPa	1707	1675.2	1643.9	1613.3
55000 kPa	1716.1	1685.1	1654.6	1624.9
60000 kPa	1724.7	1694.5	1664.7	1635.8
65000 kPa	1733.1	1703.5	1674.3	1646
70000 kPa	1741	1712.1	1683.4	1655.8
80000 kPa	1756.1	1728.1	1700.6	1674.1
90000 kPa	1770.2	1743.1	1716.5	1690.9
100000 kPa	1783.3	1757	1731.3	1706.5
110000 kPa	1795.6	1770.1	1745.1	1721
120000 kPa	1807.3	1782.5	1758.1	1734.7
130000 kPa	1818.5	1794.1	1770.3	1747.5
140000 kPa	1829.1	1805.2	1782	1759.7
